{"source": "paper PMC10005754", "about": "“Non-Nutritive Sweeteners Acesulfame Potassium and Sucralose Are Competitive Inhibitors of the Human P-glycoprotein/Multidrug Resistance Protein 1 (PGP/MDR1)” (Nutrients, 2023)", "biological_target": "T1, P-glycoprotein (PGP/MDR1) (Homo sapiens, UniProt P08183)", "T1 construct": "gene ABCB1; recombinant human PGP in membrane vesicles (Human MDR1 vesicles)", "T1 sequence (P08183 whole entry)": "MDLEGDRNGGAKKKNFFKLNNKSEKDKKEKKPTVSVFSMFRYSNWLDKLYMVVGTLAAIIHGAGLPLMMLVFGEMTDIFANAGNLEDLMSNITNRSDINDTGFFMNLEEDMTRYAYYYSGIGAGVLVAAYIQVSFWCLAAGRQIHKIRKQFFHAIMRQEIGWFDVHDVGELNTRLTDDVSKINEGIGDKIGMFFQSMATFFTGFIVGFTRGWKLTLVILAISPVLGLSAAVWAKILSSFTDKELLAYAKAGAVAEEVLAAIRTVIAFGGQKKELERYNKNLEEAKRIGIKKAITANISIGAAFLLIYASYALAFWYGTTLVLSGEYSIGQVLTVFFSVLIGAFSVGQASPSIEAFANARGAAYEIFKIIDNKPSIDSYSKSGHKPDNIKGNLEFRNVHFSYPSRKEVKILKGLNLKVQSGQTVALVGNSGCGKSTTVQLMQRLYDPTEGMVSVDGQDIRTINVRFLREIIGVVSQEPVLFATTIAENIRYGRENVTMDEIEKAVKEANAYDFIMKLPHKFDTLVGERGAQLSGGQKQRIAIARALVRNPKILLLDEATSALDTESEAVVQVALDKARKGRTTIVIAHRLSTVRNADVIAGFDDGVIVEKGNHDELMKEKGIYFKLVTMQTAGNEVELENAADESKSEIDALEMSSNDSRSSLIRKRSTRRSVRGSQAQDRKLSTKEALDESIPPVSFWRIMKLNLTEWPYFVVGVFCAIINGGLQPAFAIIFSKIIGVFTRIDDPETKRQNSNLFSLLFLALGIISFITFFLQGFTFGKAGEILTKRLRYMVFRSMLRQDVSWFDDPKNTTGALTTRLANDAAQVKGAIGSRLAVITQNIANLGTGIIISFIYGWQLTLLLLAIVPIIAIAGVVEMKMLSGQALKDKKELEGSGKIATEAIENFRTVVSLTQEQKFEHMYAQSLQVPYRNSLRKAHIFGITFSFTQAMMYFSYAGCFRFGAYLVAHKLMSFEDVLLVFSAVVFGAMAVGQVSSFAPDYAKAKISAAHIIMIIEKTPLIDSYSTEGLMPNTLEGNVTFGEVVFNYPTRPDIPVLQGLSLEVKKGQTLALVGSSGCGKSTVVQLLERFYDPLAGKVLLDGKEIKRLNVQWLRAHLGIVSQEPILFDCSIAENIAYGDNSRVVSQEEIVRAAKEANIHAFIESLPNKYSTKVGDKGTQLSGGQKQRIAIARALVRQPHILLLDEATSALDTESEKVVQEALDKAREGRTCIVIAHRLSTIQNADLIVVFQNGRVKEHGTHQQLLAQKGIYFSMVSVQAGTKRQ", "assay": "ATPase stimulation (ADP-Glo Max) in human MDR1 vesicles; also Calcein-AM retention in HepG2 cells", "format": "biochemical", "data": [{"smiles": "OC[C@H]1O[C@H](O[C@]2(CCl)O[C@H](CCl)[C@@H](O)[C@@H]2O)[C@H](O)[C@@H](O)[C@H]1Cl", "note": "[Sucr, sucralose]", "values": [{"measurement": "EC50", "value": 0.056, "unit": "nM"}]}]}
